These results are taken from PubChem BioAssay AID602217 (Sanford-Burnham Center for Chemical Genomics, 2012).

pIC50: −log10 of the molar value. Activity calls are given as the source filed them.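 How the source made its calls: active means IC50 at or below a set limit; inactive means the rest.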

In general, pIC50 refers to the negative decadic logarithm of the IC50, by convention in mol/L. For orientation: IC50 means the midpoint of a concentration-inhibition curve.

In the test the test system is HL-1 cardiomyocytes, 2-deoxyglucose injury, ATPLite luminescence, 2 h. Put plainly: 2-DG-induced HL-1 ATP loss suppression – cell-based, ATPLite luminescence, dose response (AID 602217).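 Further: cells kept in glucose-free DMEM during the 2-deoxyglucose injury; potency of protection where actives preserve ATP signal against 2-deoxyglucose stress.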 For orientation: Cellular ATP, detected with luciferase, serves as a proxy for viable cell number.
Turning to `NC(=O)c1nsc(C(=O)N(c2ccccc2)C(C(=O)NC2CCCC2)c2ccc3ncccc3c2)c1N` (centres undefined), the negative-log IC50 (pIC50) was 4.88.
In the case of `c1ccc(-c2nc(-n3ccnc3)nc(-n3ccnc3)n2)cc1`, the IC50 was 38 µM (inactive).
For the molecule `COc1ccc(-c2ccc3c(c2)S(=O)(=O)c2cccc(C(=O)N4CCN(c5c(Cl)cncc5Cl)CC4)c2C3=O)cc1OC`, the negative logarithm of the IC50 (pIC50) was 4.86.
For `COc1ccc(-c2cc(-c3nnc(COC(=O)C4CC4)o3)c3ccccc3n2)cc1OC`, the IC50 was 62.9 µM (inactive).
In the case of `COc1cc(-c2cc(C(=O)NCc3ccco3)c3ccccc3n2)cc(OC)c1OC`, the IC50 is 31.6 µM (inactive).
Consider `COc1ccc(C(=O)O/N=C(/c2ccccc2)c2ccncc2)cc1OC`, for which the IC50 was > 79 µM (inactive).
`Cc1ccc(C)c(NC(=O)C(Sc2nc3ccccc3c(=O)n2CC(C)C)c2ccccc2)c1` (centres undefined): the negative-log IC50 (pIC50) was 5.94.
In the case of `COc1ccc(-c2cc(C(=O)Nc3ccccc3N3CCOCC3)c3ccccc3n2)cc1OC`, the IC50 is > 79 µM (inactive).
`Cc1cc(N)n(-c2nc(-c3cccnc3)nc3ccccc23)n1`: the IC50 is > 79 µM (inactive).
Turning to `COc1ccc(COc2cc(-c3cccc(OC)c3)nc3ccc(NC(=O)c4cccnc4)cc23)cc1`, the pIC50 was 5.22.
On to `COc1cc2[nH]c(=O)n3nc(-c4ccccc4)nc3c2cc1OC`, for which the IC50 was 35.3 µM (inactive).
As for `O=C(CNC(=O)c1[nH]cnc1C(=O)NC(c1ccccc1)c1ccccc1)OCc1ccccc1`, the IC50 is > 79 µM (inactive).
With `CC(=O)Nc1ccc(S(=O)(=O)N(Cc2cccnc2)Cc2cc3ccccc3[nH]c2=O)cc1`, the IC50 is 30.8 µM (inactive).
Consider `NC(=O)c1nsc(C(=O)N(c2ccccc2F)C(C(=O)NCc2ccccc2)c2ccc(O)cc2)c1N` (centres undefined), for which the pIC50 was 4.96.
On the same count and under the same terms, under `CCn1c(O)c(/C=N/N=C/c2ccccc2)c2ccc(C3=NNC(=O)CC3)cc21` stands 4.74.
Turning to `O=C(CNC(=O)c1nc[nH]c1C(=O)NCC(=O)OCc1ccccc1)OCc1ccccc1`, the IC50 was > 79 µM (inactive).
On the same count and under the same terms, the figure for `CC(=O)Nc1cccc(-c2cc(NC=O)c3ncc(-c4ccc(C(C)=O)cc4)n3c2)c1` is 23.1 µM (inactive); for `CCOC(=O)c1c2c3c(cccc3n(C)c1=O)C(=O)c1ccccc1-2` it is > 79 µM (inactive).
For `Cc1cccc(NC(=O)c2oc3ccc(S(=O)(=O)N4CCOCC4)cc3c2C)c1C`, the IC50 is 30.5 µM (inactive).
On the same count and under the same terms, the figure for `COc1cc(NC(=O)c2cc3nc(-c4ccccc4)cc(-c4ccccc4)n3n2)cc(OC)c1OC` is 23.9 µM (inactive); for `Cc1[nH]c2ccccc2c1/C=N/NC(=O)c1cc(-c2cccs2)[nH]n1` it is > 79 µM (inactive); for `COc1ccc(-c2cc(NC(C)=O)c3ncc(-c4cccc(C(C)=O)c4)n3c2)cc1OC` it is > 79 µM (inactive).
On to `CC(=O)Nc1ccc(C(=O)N/N=C/c2ccccc2OC(=O)c2ccc(Cl)cc2)cc1`, for which the IC50 is > 79 µM (inactive).
In the case of `O=C(Nc1ccccc1)c1nc[nH]c1C(=O)NCCCCCCNC(=O)c1[nH]cnc1C(=O)Nc1ccccc1`, the IC50 was > 79 µM (inactive).
Take `NC(=O)c1nsc(C(=O)N(c2ccccc2)C(C(=O)NCc2ccc(F)cc2)c2ccc(O)cc2)c1N` (centres undefined): the negative-log IC50 (pIC50) was 4.70.
Regarding `COc1cccc(-c2cnc3c(NC=O)cc(-c4cccc(NC(C)=O)c4)cn23)c1`, the negative-log IC50 (pIC50) is 4.75.
As to `O=C(CCCN1C(=O)c2cccc3cccc(c23)C1=O)N1CCN(c2ccccc2O)CC1`, the IC50 was 27.4 µM (inactive).
Still for that read-out and setting: the figure for `COc1cc(/C=C/c2nnc3c4ccccc4ncn23)cc(OC)c1OC` is 31.9 µM (inactive).
Same read-out and setting: under `COc1cc(C(=O)N/N=C/c2ccc(OC(=O)c3ccccc3)c(OC)c2)ccc1O` stands 37.6 µM (inactive).
For the molecule `NC(=O)c1nsc(C(=O)N(c2ccccc2F)C(C(=O)NCc2ccc(F)cc2)c2ccc(O)cc2)c1N` (centres undefined), the negative logarithm of the IC50 (pIC50) is 5.04.
For `O=[N+]([O-])c1ccc(Nc2nc(N/N=C/c3cccc(F)c3)nc(N3CCCC3)n2)cc1`, the IC50 is > 79 µM (inactive).
For `CC(C)(C)NC(=O)COC(=O)c1c2c(nc3ccccc13)CCC2`, the IC50 was 23.7 µM (inactive).
Same read-out and setting: under `COc1ccc(-c2csc(NC(=O)c3cccc(N4C(=O)CCC4=O)c3)n2)cc1OC` stands 29.9 µM (inactive).
With `COc1ccccc1N1CCN(C(=O)c2ccc3nc(-c4ccco4)c(-c4ccco4)nc3c2)CC1`, the pIC50 was 4.79.
As to `C[C@H](NC(=O)c1nc[nH]c1C(=O)NCC(=O)OCc1ccccc1)c1ccccc1`, the IC50 is > 79 µM (inactive).
As to `CCOc1ccc2nc(NC(=O)CN3CCC(n4nnc5cc(F)ccc54)CC3)sc2c1`, the pIC50 was 5.02.
Take `CCOc1ccccc1NC(=O)c1oc2ccccc2c1NC(=O)C1CCCO1` (centres undefined): the IC50 is > 79 µM (inactive).
On the same count and under the same terms, the figure for `COc1cc(/C=N/NC(=O)NC23CC4CC(CC(C4)C2)C3)ccc1OCC(N)=O` is > 79 µM (inactive).
Same read-out and setting: the figure for `COc1cc(-c2cc3nc(NCCOc4ccccc4)ccn3n2)cc(OC)c1OC` is > 79 µM (inactive); for `CS(=O)(=O)c1ccc(-c2cnc3c(NC=O)cc(-c4ccsc4)cn23)cc1` it is > 79 µM (inactive).
Regarding `Cn1c(=O)c2[nH]c(NN=Cc3cccc(Br)c3)nc2n(C)c1=O`, the negative-log IC50 (pIC50) is 4.75.
Take `O=C(CN1CCN(c2ccccn2)CC1)Nc1ccc([N+](=O)[O-])cc1C(=O)Nc1ccccc1F`: the pIC50 is 4.75.
Consider `Cc1nc(N2CCN(c3ccccn3)CC2)c2c(C)c(C(=O)Nc3ccc(F)cc3)sc2n1`, for which the IC50 is > 79 µM (inactive).
Still for that read-out and setting: under `CCOC(=O)c1c(C)[nH]c(C)c1C(=O)COc1ncnc2cc([N+](=O)[O-])ccc12` stands > 79 µM (inactive); under `COc1ccc(-c2cc(C(=O)N(C)Cc3nc4ccccc4c(=O)[nH]3)c3ccccc3n2)cc1OC`, 21.9 µM (inactive).
For `CC(=O)c1cccc(-c2cnc3c(NC=O)cc(-c4ccccc4F)cn23)c1`, the IC50 was > 79 µM (inactive).
With `CCOC(=O)C1CCN(c2cc3c(cc2NC(=O)c2ccc(OC)c(OC)c2)n(C)c(=O)n3C)CC1`, the IC50 was > 79 µM (inactive).
In the case of `COc1cc(NC(=O)c2cc3ccccc3cc2OC)ccc1NC(=O)c1cccs1`, the negative logarithm of the IC50 (pIC50) was 5.23.
Turning to `O=C(NCC(=O)N(Cc1cccs1)C(C(=O)NC1CCCCC1)c1ccco1)c1ccco1` (centres undefined), the IC50 is > 79 µM (inactive).
As to `Cc1cc(C)c2c(N)c(C(=O)N/N=C/c3cccnc3)sc2n1`, the IC50 was > 79 µM (inactive).
On the same count and under the same terms, the figure for `COc1ccc(Nc2nc(C(=O)N3CCc4cc(OC)c(OC)cc4C3)cs2)cc1` is 42 µM (inactive).
Regarding `C=CCOC(=O)C1=C[C@H](c2cn(C(C)=O)c3ccccc23)C[C@H](OCc2ccc(CO)cc2)O1`, the IC50 was > 79 µM (inactive).
Consider `COc1ccc(-n2c(/C=C/c3ccc(O)c(OC)c3)nc3ccccc3c2=O)cc1`, for which the IC50 is 21.3 µM (inactive).
On the same count and under the same terms, under `CCCn1nc(C(=O)Nc2nc(-c3ccccn3)cs2)c2ccccc2c1=O` stands > 79 µM (inactive); under `Cc1ccc(C=NNc2nc3c([nH]2)c(=O)n(C)c(=O)n3C)cc1`, > 79 µM (inactive); under `O=CNc1cc(-c2ccc(C(=O)NC3CC3)cc2)cn2c(-c3ccccc3)cnc12`, 40.9 µM (inactive).
For `CCOC(=O)c1ccc(NC(=O)c2nc[nH]c2C(=O)NCCCCCNC(=O)OC(C)(C)C)cc1`, the IC50 was > 79 µM (inactive).
Still for that read-out and setting: under `COc1cccc(-c2cnc3c(NC(C)=O)cc(-c4cccc(NS(C)(=O)=O)c4)cn23)c1` stands > 79 µM (inactive); under `O=C(CN(c1ccc2c(c1)OCCO2)S(=O)(=O)c1ccccc1)Nc1ccc2c(c1)OCO2`, > 79 µM (inactive).
Same read-out and setting: the figure for `COCCCN(Cc1ccco1)C(=O)Cn1ncc2c([nH]c3ccccc32)c1=O` is 41.4 µM (inactive).
Take `COc1ccc(C(=O)Nc2cccc(NC(=O)c3ccc(OC)c(OC)c3)n2)cc1OC`: the negative-log IC50 (pIC50) was 4.95.
For the molecule `Cc1ccc(C(C(=O)NCc2ccccc2)N(Cc2ccco2)C(=O)c2snc(C(N)=O)c2N)o1` (centres undefined), the IC50 was 23.9 µM (inactive).
`CNC(=O)COC(=O)/C=C/c1cn(-c2ccccc2)nc1-c1ccc(C)o1`: the IC50 was > 79 µM (inactive).
Take `COc1ccc(C(C(=O)NCc2ccccc2)N(Cc2ccco2)C(=O)c2snc(C(N)=O)c2N)cc1` (centres undefined): the IC50 was 39.5 µM (inactive).
On to `COc1ccc(-n2cc(-c3ccccc3)c3c(N4CCOCC4)ncnc32)cc1`, for which the negative logarithm of the IC50 (pIC50) was 5.36.
As for `CCOC(=O)C1CCN(c2cc3c(cc2NC(=O)c2ccccc2)n(C)c(=O)n3C)CC1`, the IC50 was > 79 µM (inactive).
Consider `O=C(NCC(=O)N(Cc1ccccc1)C(C(=O)NC1CCCCC1)c1ccco1)c1ccco1` (centres undefined), for which the IC50 was > 79 µM (inactive).
Regarding `CCOc1cc(/C=C(\C#N)C(=O)Nc2ccc(S(N)(=O)=O)cc2)ccc1OCCN1CCOCC1`, the IC50 is > 79 µM (inactive).
Same read-out and setting: the figure for `CC(C)OCCCNC(=O)CCC(=O)NNc1nc2ccccc2c2nc(-c3ccccc3)nn12` is > 79 µM (inactive).
For the molecule `COc1ccc(-c2cc(-c3nnc(COC(=O)c4ccncc4)o3)c3ccccc3n2)cc1OC`, the IC50 was 24.7 µM (inactive).
As for `COc1cccc(/C=N/NC(=O)c2oc3nc(-c4ccccc4)cc(-c4ccco4)c3c2N)c1`, the negative logarithm of the IC50 (pIC50) was 5.30.
In the case of `COc1ccc(CCNC(=O)C(=O)NCC2CCCN2S(=O)(=O)c2ccccc2)cc1OC` (centres undefined), the IC50 was 45.9 µM (inactive).
Still for that read-out and setting: the figure for `CC(C)c1ccccc1NC(=O)COC(=O)c1c2c(nc3ccccc13)CCN(Cc1ccccc1)C2` is > 79 µM (inactive).
For the molecule `O=C(c1cc(=O)[nH]c2ccccc12)N1CCN(S(=O)(=O)c2ccc(Cl)cc2)CC1`, the IC50 is 58.3 µM (inactive).
On to `CCN(CC)C(=O)c1[nH]cnc1C(=O)NCC(=O)OCc1ccccc1`, for which the IC50 is 69.9 µM (inactive).
Consider `CCOc1ccc(C(C(=O)NC2CCCC2)N(C(=O)c2snc(C(N)=O)c2N)c2cccc(O)c2)cc1` (centres undefined), for which the pIC50 was 4.88.
For `COc1cccc(C(=O)Nc2c(C(N)=O)oc3ccccc23)c1`, the IC50 is 33.6 µM (inactive).
As for `CC(=O)Nc1cc(-c2cccc(NS(C)(=O)=O)c2)cn2c(-c3cccc(C(C)=O)c3)cnc12`, the IC50 is 36.4 µM (inactive).
The same measure, in the same setting: the figure for `COc1cccc(Nc2nc(-c3sc(NC(=O)c4ccco4)nc3C)cs2)c1` is 26.4 µM (inactive).
